Assay results taken from patent US20240417387A1, “SULFONYLPIPERAZINYL COMPOUNDS FOR TREATMENT OF BACTERIAL INFECTIONS” (Hoffmann-La Roche Inc., priority 2021, published 2024).
≈ marks a conversion by molar mass, not a printed value.

Legend:
[1] = target: Escherichia coli UDP-2,3-diacylglucosamine hydrolase (LpxH) (Escherichia coli (strain K12), UniProt P43341); test: Enzymatic IC50 assay of Escherichia coli LpxH (UMP/CMP-Glo luminescence); assay type: biochemical; details: Enzymatic IC50 against Escherichia coli LpxH; read-out: IC50 (converted)
Experimental: The inhibitory potency of compounds of Escherichia coli UDP-2,3-diacylglucosamine hydrolase (LpxH) was determined in an enzymatic assay. UDP-2,3-diacylglucosamine (UDP-DAG) was purified from the Caulobacter crescentus LpxI D225A mutant protein that contained a tightly bound UDP-DAG molecule. The enzyme was diluted using assay buffer containing 50 mM NaCl, 20 mM Tris-HCl pH7.5, 2.5 mM MnCl2, 0.01% Triton X-100.1 mg/mL BSA, and the final concentration is 2 nM. The compounds were diluted by Agilent liquid handler Bravo, the compound's serial dilution dose ranges from 100 μM to 1.7 nM. Then the enzyme and compounds mixture were incubated at room temperature for 10 mins. The enzymatic assay was started by adding UDP-DAG (FAC is 5 μM) and incubated for 20 mins at room temperature. The plate was then heated to 95° C. for 15 mins on a water batch to stop the reaction. The hydrolysis of UDP-DAG by LpxH yielded 2,3-diacylglucosamine 1-phosphate (lipid X) and UMP, which was converted to ATP and quantified by the luciferase reaction using the UMP/CMP-Glo™ Glycosyltransferase Assay kit from Promega. The compound's inhibitory effect of LpxH is determined by measuring the light change using a luminometer (Envision).

[2] = tested on: Escherichia coli BW 25113; test: Minimal Inhibitory Concentration (MIC) broth dilution assay, E. coli BW 25113; assay type: cell-based; details: Escherichia coli, BW25113, 20 hours at 35° C., CAMHB, read-out: MIC E. coli K-12 BW 25113
Experimental: (§1) The antibacterial activity of molecules was evaluated against the commonly used quality control strain Escherichia coli BW 25113, Escherichia coli ATCC 25922 and the rifampin-resistant mutant strain Klebsiella pneumonia ATCC 43816. Escherichia co/i BW 25113 was obtained from the Coli Genetic Stock Center (CGSC) (strain 7636). Both Escherichia coli ATCC 25922 and Klebsiella pneumonia ATCC 43816 were originally derived from human clinical samples and are available from ATCC (American Type Culture Collection). The in vitro potency of compounds to inhibit Escherichia coli (BW 25113, ATCC 25922) and Klebsiella pneumonia (ATCC 43816) growth was assessed by the MIC (Minimal Inhibitory Concentration) broth dilution method. Specifically compound dilutions were prepared from 10 mM DMSO stock solutions as follows: i) serial 2-fold dilution in 20 μL DMSO were prepared in a master plate (Greiner, Cat No: 651201), ii) 180 μL sterile distilled water was added to each aliquot and iii) 10 μL diluted compounds were transferred into a new assay plate (Costar, 3599).
(§2) Vials of each test microorganisms were maintained frozen in the vapor phase of a liquid nitrogen freezer. Single-use frozen vials of the three strains Escherichia coli BW 25113, Escherichia coli ATCC 25922 (KWTKSTTK, 0335K) and Klebsiella pneumonia ATCC 43816, with predetermined CFU/mL, were taken out from the freezer, thawed at room temperature, and diluted in Cation-Adjusted Mueller Hinton Broth (CAMVIHB) to achieve a final inoculum of 5×10^5 CFU/mL. 90 μL bacteria containing broth was dispensed to the assay plate containing the pre-dispensed compound dilutions and mixed by pipetting 5 times.
(§3) Then the assay plates were incubated for 20 hours at 35° C. in ambient air. Following incubation, the MIC […], the lowest concentration of drug that inhibits visible growth of the microorganism was read with the help of a magnification mirror and recorded.

[3] = tested on: Escherichia coli ATCC 25922; test: Minimal Inhibitory Concentration (MIC) broth dilution assay, E. coli ATCC 25922; assay type: cell-based; details: Escherichia coli, ATCC25922, 20 h, read-out: MIC E. coli ATCC 25922
Experimental: as §1, §2, §3

[4] = tested on: Klebsiella pneumonia ATCC 43816; test: Minimal Inhibitory Concentration (MIC) broth dilution assay, K. pneumonia ATCC 43816; assay type: cell-based; details: Klebsiella pneumoniae, ATCC43816, 20 hours at 35° C., CAMHB, read-out: MIC K. p ATCC 43816
Experimental: as §1, §2, §3

[5] = Human microsome stability assay; assay type: in vitro ADME; details: human liver microsomes 0.5 mg/mL, 37° C., pH 7.4, NADPH regenerating system
Experimental: The human microsomal stability assay is used for early assessment of metabolic stability of a test compound in human liver microsomes.
Human liver microsomes (Cat.NO.: 452117, Corning, USA) were preincubated with test compound for 10 minutes at 37° C. in 100 mM potassium phosphate buffer, pH 7.4. The reactions were initiated by adding NADPH regenerating system. The final incubation mixtures contained 1 µM test compound, 0.5 mg/mL liver microsomal protein, 1 mM MgCl2, 1 mM NADP, 1 unit/mL isocitric dehydrogenase and 6 mM isocitric acid in 100 mM potassium phosphate buffer, pH 7.4. After incubation times of 0, 3, 6, 9, 15 and 30 minutes at 37° C., 300 μL of cold acetonitrile (including internal standard) was added to 100 μL incubation mixture to terminate the reaction. Following precipitation and centrifugation, the amount of compound remaining in the samples were determined by LC-MS/MS. Controls of no NADPH regenerating system at zero and 30 minutes were also prepared and analyzed. […] (Human microsome clearance: <7 mL/min/kg: low; 7-16.2 mL/min/kg: medium; >16.2 mL/min/kg: high)

Escherichia coli UDP-2,3-diacylglucosamine hydrolase (LpxH), sequence (P43341 whole entry): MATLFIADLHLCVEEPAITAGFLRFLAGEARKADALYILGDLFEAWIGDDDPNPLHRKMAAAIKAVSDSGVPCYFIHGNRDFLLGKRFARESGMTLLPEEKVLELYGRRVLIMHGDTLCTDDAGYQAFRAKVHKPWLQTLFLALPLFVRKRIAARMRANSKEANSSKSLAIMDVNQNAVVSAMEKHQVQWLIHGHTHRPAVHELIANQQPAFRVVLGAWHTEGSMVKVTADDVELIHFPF

| Structure (SMILES) | IC50 [1] [nM] | MIC [2] [µg/mL] | MIC [3] [µg/mL] | MIC [4] [µg/mL] | Clearance of Human microsome [5] [mL/min/kg] |
| --- | --- | --- | --- | --- | --- |
| NCCOCCNC(=O)[C@H]1CC[C@H](C(F)(F)c2cc(Cl)nc(N3CCN(S(=O)(=O)c4ccc(N5C[C@H](N)CC5=O)cc4)CC3)c2)CC1 [Example 042, Trans-N-[2-(2-aminoethoxy)ethyl]-4-[[2-chloro-6-[4-[4-[(4R)-4-amino-2-oxo-pyrrolidin-1-yl]phenyl]sulfonylpiperazin-1-yl]-4-pyridyl]-difluoro-methyl]cyclohexanecarboxamide] | 11.5 | 2.3 (≈ 3.29 µM) | 2.3 (≈ 3.29 µM) | 2.3 (≈ 3.29 µM) | 11.12 |
| NC(=O)[C@H]1CC[C@H](C(F)(F)c2cc(Cl)nc(N3CCN(S(=O)(=O)c4ccc(N5C[C@H](N)CC5=O)cc4)CC3)c2)CC1 [Example 014] | < 3.27 | 1.1 (≈ 1.8 µM) | 1.1 (≈ 1.8 µM) | 1.1 (≈ 1.8 µM) | 6.15 |
| CN1CC2(C1)CN(C(=O)[C@H]1CC[C@H](C(F)(F)c3cc(Cl)nc(N4CCN(S(=O)(=O)c5ccc(N6C[C@H](N)CC6=O)cc5)CC4)c3)CC1)C2 [Example 005, Trans-(4R)-4-amino-1-[4-[4-[6-chloro-4-[difluoro-[4-(6-methyl-2,6-diazaspiro[3.3]heptane-2-carbonyl)cyclohexyl]methyl]-2-pyridyl]piperazin-1-yl]sulfonylphenyl]pyrrolidin-2-one] | 4.25 | 3.3 (≈ 4.67 µM) | 2.2 (≈ 3.12 µM) | 2.2 (≈ 3.12 µM) | 6.15 |
| CC(CN)NC(=O)[C@H]1CC[C@H](C(F)(F)c2cc(Cl)nc(N3CCN(S(=O)(=O)c4ccc(N5C[C@H](N)CC5=O)cc4)CC3)c2)CC1 (stereo partly drawn) [Example 008, Trans-N-(2-amino-1-methyl-ethyl)-4-[[2-chloro-6-[4-[4-[(4R)-4-amino-2-oxo-pyrrolidin-1-yl]phenyl]sulfonylpiperazin-1-yl]-4-pyridyl]-difluoro-methyl]cyclohexanecarboxamide] | 5.99 | 1 (≈ 1.5 µM) | 0.52 (≈ 0.778 µM) | 0.52 (≈ 0.778 µM) | 8.07 |
| NCCNCCNC(=O)[C@H]1CC[C@H](C(F)(F)c2cc(Cl)nc(N3CCN(S(=O)(=O)c4ccc(N5C[C@H](N)CC5=O)cc4)CC3)c2)CC1 [Example 072, Trans-N-[2-(2-aminoethylamino)ethyl]-4-[[2-chloro-6-[4-[4-[(4R)-4-amino-2-oxo-pyrrolidin-1-yl]phenyl]sulfonylpiperazin-1-yl]-4-pyridyl]-difluoro-methyl]cyclohexanecarboxamide] | 4.3 | 0.57 (≈ 0.817 µM) | 1.1 (≈ 1.58 µM) | 1.1 (≈ 1.58 µM) | 6.15 |
| NCCCNC(=O)C1CCC(C(F)(F)c2cc(Cl)nc(N3CCN(S(=O)(=O)c4ccc(N5C[C@H](N)CC5=O)cc4)CC3)c2)C1 (stereo partly drawn) [Example 035, N-(3-aminopropyl)-3-[[2-chloro-6-[4-[4-[(4R)-4-amino-2-oxo-pyrrolidin-1-yl]phenyl]sulfonylpiperazin-1-yl]-4-pyridyl]-difluoro-methyl]cyclopentanecarboxamide] | 45.9 | – | – | – | 8.90 |
| NCCCNC(=O)[C@H]1CC[C@H](C(F)(F)c2cc(Cl)nc(N3CCC(S(=O)(=O)c4ccc(N5C[C@H](N)CC5=O)cc4)CC3)c2)CC1 [Example 062, Trans-N-(3-aminopropyl)-4-[[2-chloro-6-[4-[4-[(4R)-4-amino-2-oxo-pyrrolidin-1-yl]phenyl]sulfonyl-1-piperidyl]-4-pyridyl]-difluoro-methyl]cyclohexanecarboxamide] | 33 | – | – | – | 7.74 |
| C[N+]1(CCN)CCN(C(=O)[C@H]2CC[C@H](C(F)(F)c3cc(Cl)nc(N4CCN(S(=O)(=O)c5ccc(N6C[C@H](N)CC6=O)cc5)CC4)c3)CC2)CC1 [Example 071, Trans-(4R)-4-amino-1-[4-[4-[4-[[4-[4-(2-aminoethyl)-4-methyl-piperazin-4-ium-1-carbonyl]cyclohexyl]-difluoro-methyl]-6-chloro-2-pyridyl]piperazin-1-yl]sulfonylphenyl]pyrrolidin-2-one] | 14.9 | – | – | – | 10.73 |
